Test results as given in patent publication US5576177A, “Bioassay for reverse transcriptase inhibitors” (St. Jude Children's Research Hospital, priority 1994, dated 1996).
Where two headings read alike, the source gives them in different places.

Key:
[1] = target: HIV-1 reverse transcriptase (HIV-1 M:B_HXB2R, UniProt P04585); test: Inhibition of HIV-1 reverse transcriptase (TTP incorporation, poly[rA]-oligo[dT]12-18 primer-template); format: biochemical; conditions: for inhibition of reverse transcriptase activity (effect on reaction kinetics): at concentrations of up to 10,000 fmols
Protocol: (§1) Reverse transcriptase assays were performed using substantially purified HIV-1 reverse transcriptase and poly[rA]-oligo[dT]12-18 as primer-template. The reactions were carried out in a total volume of 10 μl; a 4.5 μl volume of the sample was mixed with an equal volume of a reaction mixture to provide a final concentration of 50 mM Tris (pH 8.5), 6 mM MgCl2, 10 mM dithiothreitol (DTT), 2.0 μg bovine serum albumin (BSA), 0.5 μCi TTP, 80 mM KCl, and 0.05% Triton X-100. The reaction was initiated by the addition of 1.0 μl of HIV reverse transcriptase (containing~1 ng protein; from American BioTechnology,Cambridge, Mass.; Cat. No. 26001). After 1 hour incubation at 37° C., the reaction was stopped by the addition of 5.0 μof stop buffer (50 mM EDTA+3% SDS). The reverse transcriptase products (polymerization products) were separated from the unincorporated label by chromatography on Sephadex G-25 (superfine) columns. The fractions corresponding to the void volume were collected and counted by scintillation counting.

[2] = system: human immunodeficiency virus reverse transcriptase; conditions: cited from earlier work
[3] = system: peripheral blood mononuclear cells; test: Intracellular zidovudine triphosphate in peripheral blood mononuclear cells of HIV-infected volunteers (reverse transcriptase bioassay); format: in vivo, human
Protocol: Peripheral blood mononuclear cell isolation. Heparinized blood from normal human volunteers or asymptomatic HIV seropositive individuals was diluted 1:1 with HBSS, layered onto LSM (Ficoll hypaque) and then separated by centrifugation for 30 min at 400×g. The mononuclear cell layer was removed, washed once with growth media, counted, and pelleted by centrifugation. The cells were then resuspended in growth medium (RPMI containing 10% fetal calf serum) and the residual erythrocytes lysed by the addition of 3 volumes of cold water for 30 seconds. Erythrocyte lysis was stopped by the addition of 1 volume of 0.6M sodium chloride, and the mononuclear cells were pelleted by centrifugation.
Uncultured peripheral blood mononuclear cells from zidovudine-treated patients were resuspended in 1 ml of media and transferred to a 1.5 ml centrifuge tube, spun 1 min at 14,000 rpm, the media removed, and pulsed again to allow removal of any residual media. The cells were extracted for at least 15 min with 200 μl of ice cold 70% methanol per 1×10^7 cells. The cell debris was removed by centrifugation for 15 min at 14,000 rpm and the supernate stored in -20° C. until required for analysis. Prior to use, the extracts were dried under vacuum and resuspended in 50 μl of 5 mM Tris-HCl buffer (pH 8.5); extracts from 0.5×10^7 CEM cells or 1×10^7 cultured peripheral blood mononuclear cells were reconstituted in 200 μl buffer.
as §1
The zidovudine-free peripheral blood mononuclear cells from each individual at baseline (untreated) served as the cell background to construct the standard curve for zidovudine triphosphate determination.
(§2) Individuals in this study were HIV-infected individuals recruited from an area clinic. […] CD4 and CD8 cell counts were determined from baseline samples.

CEM cells [4] = test: Zidovudine triphosphate level in CEM cells by HPLC-RIA; format: in vitro ADME; conditions: 4 hr incubation with 1 μM zidovudine, n = 3
Protocol: (§3) One fraction was analyzed by HPLC and zidovudine metabolites were quantitated by usual radioisotopic methods.
(§4) Cell extracts were analyzed and quantified by using the different assays as described in Materials and Methods. Statistical parameters represent the standard deviation of the mean (δ) of three determinations of parallel samples.
CEM cells were extracted in the same manner as cultured peripheral blood mononuclear cell samples (see Materials and Methods). […] The samples were cleaned up using Waters Sep-pak C-18 cartridges. The cartridges were conditioned with 10% methanol and then rinsed with water. Each sample was applied separately and eluted with 50% methanol. The samples were vacuum desiccated to a volume under 500 μl and further purified with a 250 mm Whatman ODS-3 column. Buffer A was 35% methanol and buffer B was 50% methanol. The gradient was 15 min at 0% B followed by 20 min at 100% B with a flow rate of 0.5 ml/min and fractions collected every min. The fractions containing zidovudine were pooled and vacuum desiccated to dryness. […] The antibody was diluted 1:3 and preincubated with the sample 2 hours.

CEM cells [5] = test: Zidovudine triphosphate level in CEM cells by reverse transcriptase bioassay; format: in vitro ADME; conditions: 4 hr incubation with 1 μM zidovudine, n = 3
Protocol: (§5) Preparation of cell extracts. […] The cell pellets were resuspended in 1 ml of residual media and layered onto 150 μl of nyosil oil, and spun through the oil. The media above the oil layer was removed, and any residual media was removed by rinsing the area above the oil layer by two gentle water washes. Finally, the oil was removed and the cells were extracted with 70% methanol+15 mM Tris-HCl buffer (pH 7.4) for at least 15 min on ice. The debris was removed by centrifugation and the samples stored at -20° C. until required.
Reverse transcriptase assays were performed using substantially purified HIV-1 reverse transcriptase and poly[rA]-oligo[dT]12-18 as primer-template. The reactions were carried out in a total volume of 10 μl; a 4.5 μl volume of the sample was mixed with an equal volume of a reaction mixture to provide a final concentration of 50 mM Tris (pH 8.5), 6 mM MgCl2, 10 mM dithiothreitol (DTT), 2.0 μg bovine serum albumin (BSA), 0.5 μCi TTP, 80 mM KCl, and 0.05% Triton X-100. […] The fractions corresponding to the void volume were collected and counted by scintillation counting.
as §3
Cell extracts were analyzed and quantified by using the different assays as described in Materials and Methods. […]

CEM cells [6] = test: Zidovudine triphosphate level in CEM cells by HPLC-radioactive method; format: in vitro ADME; conditions: 4 hr incubation with 1 μM zidovudine, n = 1
Protocol: as §5, §3
(§6) Buffers used in the separation procedure were A--0.005M ammonium phosphate at pH 4.0+10% methanol and B--0.7M ammonium phosphate at pH 4.6+10% methanol.
as §4

[7] = system: peripheral blood mononuclear cells; conditions: AIDS patients receiving 300 mg oral zidovudine; cited from earlier work
[8] = system: peripheral blood mononuclear cells; test: Phosphorylation of zidovudine in peripheral blood mononuclear cells in vitro; format: in vitro ADME, human; conditions: proliferating compared to resting cells; 1 μM [^3 H]zidovudine
Protocol: Culture of human peripheral blood mononuclear cells. The peripheral blood mononuclear cells were suspended in growth media and transferred to plastic tissue culture flasks. The monocyte/macrophage cells were allowed to adhere to the flask for at least 60 min after which the non-adherent cells comprises primarily of lymphocytes were transferred to a new flask. The cells were stimulated by addition of 5 μg/ml of PHA-P and 10 units/ml of IL-2 and incubated for 72 hours at 37° C. prior to use. Fresh media was added every 24 hours to maintain the IL-2 concentration. If quiescent cells were required the PHA-P and IL-2 were omitted and the cells were used the following day.
as §5, §6

[9] = Plasma zidovudine concentrations and pharmacokinetics in HIV-infected volunteers (RIA); format: in vivo, human; conditions: for concentration at 1 h: po; for AUC: read-out: AUC (area under the curve), median; for half-life: read-out: t1/2 (half life), median (converted)
Protocol: Pharmacokinetic studies in patients. To assess the utility and sensitivity of the bioassay of the invention in patients, a clinical study was performed. The study was approved by the Institutional Review Board of St. Jude Children's Research Hospital and informed consent was obtained from each individual according to institutional procedures.
as §2
Prior distributions for the parameters were assumed to be log normally distributed with known but independent variances (i.e., no parameter covariance) and were taken from previous studies in similar patients (Flether et al., Pharmacotherapy 12:429-434 (1992)).
Plasma samples were heat inactivated at 56° C. for 4 hours prior to assay. The samples were diluted to obtain values within a standard curve range of 10-200 ng/ml with 200 μl of sample. […] Five-hundred μl of a secondary antibody precipitating complex was added and incubated for 20 min at room temperature. The resultant mixtures were centrifuged, the supernate decanted, and the precipitate counted using an LKB gamma counter connected to an IBM PC computer with an RIA Calif. LC software program.

[10] = 10 to 500 fmol, no cell extract
[11] = spiked with extract of peripheral blood mononuclear cells (about 10^6 cells)
[12] = human, plasma, 100 mg single oral dose
[13] = human, plasma, 500 mg single oral dose

Cc1cn([C@H]2C[C@H](O)[C@@H](COP(=O)(O)O)O2)c(=O)[nH]c1=O [thymidine monophosphate (TMP), thymidine monophosphate]
inhibition of reverse transcriptase activity (effect on reaction kinetics) [1]: did not affect the reaction kinetics

Cc1cn([C@H]2C[C@H](N=[N+]=[N-])[C@@H](CO[P@](=O)(O)O[P@](=O)(O)OP(=O)(O)O)O2)c(=O)[nH]c1=O [zidovudine triphosphate]
inhibition of HIV reverse transcriptase [2]: potent inhibitor | reverse transcriptase chain termination [2]: causes reverse transcriptase chain termination | proportion of median plateau values ([3]; 500 mg vs 100 mg): 1.7 | time course of zidovudine triphosphate values ([3]; 1 to 6 hours after zidovudine): increased from 1 to 2 hours (Table 3 (below)) and then remained at a plateau value through 6 hours | measurability of zidovudine triphosphate after zidovudine administration ([3]; 100 or 500 mg zidovudine): could be measured in all 12 volunteers | Median Ratio (500/100) ([3]; 1 h): 8.4 | Median Ratio (500/100) ([3]; 2 h): 1.6 | Median Ratio (500/100) ([3]; 4 h): 1.5 | Median Ratio (500/100) ([3]; 6 h): 2.1 | % CV range of intracellular zidovudine triphosphate ([3]; after 100 or 500 mg zidovudine): 52-157% | Zidovudine Triphosphate (CEM cells [4]): 1.50 ± 0.65 pmol/10^6 cells | Zidovudine Triphosphate (CEM cells [5]): 1.39 ± 0.17 pmol/10^6 cells | Zidovudine Triphosphate (CEM cells [6]): 1.42 pmol/10^6 cells | coefficient of regression of linear inhibition kinetics [1, 10]: 0.99 | inhibition kinetics of HIV reverse transcriptase [1, 10]: linear inhibition kinetics | R of linear inhibition kinetics [1, 11]: > 0.98 | inhibition kinetics of HIV reverse transcriptase [1, 11]: good linear kinetics | zidovudine triphosphate level relative to the patent's results [7]: 10 -fold higher

Cc1cn([C@H]2C[C@H](N=[N+]=[N-])[C@@H](CO)O2)c(=O)[nH]c1=O [zidovudine, 3'-azido-3'-deoxythymidine]
phosphorylation rate of zidovudine [8]: high phosphorylation rate | Plasma Zidovudine ([9]; 100 mg single oral dose, 6 h, #ND = plasma zidovudine concentration below standard curve in 4 of 5 patients): ND# | difference of CLo between dose groups ([9]; 100 mg vs 500 mg, p>0.2 by Mann-Whitney U test): not significantly different | concentration at 1 h ([9]; human, plasma, 100 mg dose): 1790 nM | concentration at 1 h ([9]; human, plasma, 500 mg dose): 6300 nM | concentration at 2 h [9, 12]: 760 nM | concentration at 4 h [9, 12]: 260 nM | AUC [9, 12]: 1200 ng·h/mL | half-life [9, 12]: 1.29 h | concentration at 2 h [9, 13]: 3000 nM | concentration at 4 h [9, 13]: 900 nM | concentration at 6 h ([9]; human, plasma, 500 mg single oral dose, 6 h): 360 nM | AUC [9, 13]: 4200 ng·h/mL | half-life [9, 13]: 1.07 h

Cc1cn([C@H]2C[C@H](N=[N+]=[N-])[C@@H](COP(=O)(O)O)O2)c(=O)[nH]c1=O [zidovudine-MP]
inhibition of reverse transcriptase activity (effect on reaction kinetics) [1]: did not affect the reaction kinetics
